{
  "source": "patent US9937163B2",
  "about": "“Remedy for psychoneurotic diseases” (National University Corporation Chiba University, priority 2004, dated 2018)",
  "test_system": "P50 auditory evoked potential in schizophrenic patients",
  "experiment": "P50 auditory evoked potential in schizophrenic patients before and 1 h after administration of tropisetron",
  "type": "in vivo, human",
  "experimental": "Twenty-two patients with schizophrenia (14 males and 8 females, average age: 39.8 years old (standard deviation 14.0), age range: 18-60 years old) were selected as subjects. The subjects were diagnosed by psychiatrists on the basis of DSM-IV criteria. Psychiatric symptoms and cognitive functions of the subjects were evaluated using Brief Psychiatric Rating Scale (BPRS), Global Assessment of Functioning (GAF), Mini-Mental State Examination (MMSE) and Wechsler Adult Intelligence Scale-Revised (WAIS-R).\nFirst, a baseline P50 auditory evoked potential of a subject was measured (conditioning P50), then the P50 was measured 1 h after administration of 10 mg of tropisetron (test P50). P50 is a positive brain wave which appears approximately 50 m seconds after an auditory stimulus. Consecutive click sounds with an interval of 500 m seconds (conditioning stimulus and test stimulus) at 70 dB were presented every 10 seconds for 120 times, and the brain wave measured at the parietal region was summed to identify P50. The resistance of an electrode was set at 10 kW or less, and the brain wave exceeding ±70 mV was omitted as artifact. The largest positive wave between 40 ms and 90 ms after the conditioning stimulus was designated to be the conditioning P50, and the positive wave after the test stimulus whose latency is the closest to that of the conditioning P50 was designated to be the test P50. The amplitude of P50 was defined as the difference between the positive peak and the preceding negative trough. The P50 ratio was defined as the amplitude of the test P50 divided by the amplitude of the conditioning P50.\nData were expressed as average±standard deviation. The statistical analysis between two groups was performed using Student's t-test. The relationship between variables was confirmed by Pearson's product-moment correlation coefficient. p Values of 0.05 or less were designated to be statistically significant.",
  "key": {"[1]": {"conditions": "1 h after administration of 10 mg tropisetron, 19 subjects with baseline P50 ratio larger than 0.5"}},
  "note": "Marks after values point to notes of the source that are not given here.",
  "data": [
    {"smiles": "CN1[C@@H]2CC[C@H]1C[C@@H](OC(=O)c1c[nH]c3ccccc13)C2", "note": "[tropisetron, (1R,3r,5S)-8-methyl-8-azabicyclo[3.2.1]oct-3-yl 1H-indole-3-carboxylate]", "values": [
      {"measurement": "Change in amplitude of conditioning P50 between before and after administration", "setting": "10 mg tropisetron, 1 h, 19 subjects, t=0.79, df=18, p=0.44", "result": "no significant differences"},
      {"measurement": "Change in latency of conditioning P50 between before and after administration", "setting": "10 mg tropisetron, 1 h, 19 subjects, t=1.05, df=18, p=0.31", "result": "no significant differences"},
      {"measurement": "Change in P50 ratio between before and after administration", "setting": "10 mg tropisetron, 1 h, 19 subjects, t=2.32, df=18, p=0.033", "result": "significant decrease"},
      {"measurement": "Latency, conditioning P50, After, Mean", "setting": "[1]", "result": 59.79, "unit": "ms"},
      {"measurement": "Latency, test P50, After, Mean", "setting": "[1]", "result": 59.16, "unit": "ms"},
      {"measurement": "P50(T/C)ratio, After, Mean", "setting": "1 h after administration of 10 mg tropisetron, 19 subjects with baseline P50 ratio larger than 0.5, amplitude of test P50 divided by amplitude of conditioning P50", "result": "0.61*"},
      {"measurement": "Effect on cognitive dysfunction in schizophrenia", "setting": "conclusion drawn from the decrease in P50 ratios in patients with schizophrenia", "result": "improves cognitive dysfunction in schizophrenia"},
      {"measurement": "Number of subjects in whom the P50 ratio improved to 0.5 or less", "setting": "of 19 subjects with baseline P50 ratio larger than 0.5, after 10 mg tropisetron", "result": "four"}
    ]}
  ]
}
